One test has as its target human cathepsin K (UniProt P43236, Y175D/V274L, species not given). Put plainly: Cathepsin K Assay. The settings on record: IP from dose response curve; Z-Leu-Arg-AMC substrate, pH 5.5; read-out: hrbCat K (IP (nM)). Type of test: biochemical.
The target of another test is T1, human cathepsin F (Homo sapiens, UniProt Q9UBX1).
T1 sequence (Q9UBX1 271-484): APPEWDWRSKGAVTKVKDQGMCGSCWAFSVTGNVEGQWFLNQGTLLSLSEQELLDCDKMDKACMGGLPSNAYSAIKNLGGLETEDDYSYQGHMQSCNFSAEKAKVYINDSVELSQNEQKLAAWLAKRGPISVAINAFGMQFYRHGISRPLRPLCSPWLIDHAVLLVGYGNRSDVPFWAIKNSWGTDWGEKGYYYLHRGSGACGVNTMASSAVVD
Nature of the test: Cathepsin F Assay. The settings on record: IP from dose response curve; Z-Phe-Arg-AMC substrate, pH 5.5; read-out: hCat F (IP (nM)). Type of test: biochemical. The procedure:
Serial dilutions (1/3) from 500 μM down to 0.025 μM of test compounds were prepared in dimethyl sulfoxide (DMSO). Then 0.5 μL of DMSO from each dilution were added to 18.75 μL of assay buffer (MES, 50 mM (pH 5.5); EDTA, 2.5 mM; DTT, 2.5 mM and 10% DMSO) containing human cathepsin F (10 nM) in assay buffer solution. The assay solutions were mixed for 5-10 seconds on a shaker plate and incubated for 15 minutes at room temperature. Z-Phe-Arg-AMC (8 μM) in 6.25 μL of assay buffer was added to the assay solutions. Hydrolysis of the coumarin leaving group (AMC) was followed by spectrofluorometry (Exλ=360 nm; Emλ=460 nm) for 20 minutes. Percent of inhibition were calculated by fitting experimental values to standard mathematical model for dose response curve.

The structures appear in SMILES notation.

Take `CN=S1(=O)CCN(c2ccc(-c3cn(-c4ccc(F)cn4)nc3[C@@H]3CC(F)(F)CC[C@H]3C(=O)NC3(C#N)CC3)cc2)CC1` [Example 9, (1R,2R)—N-(1-Cyanocyclopropyl)-4,4-difluoro-2-(1-(5-fluoropyridin-2-yl)-4-(4-(1-(methylimino)-1-oxidothiomorpholino)phenyl)-1H-pyrazol-3-yl)cyclohexanecarboxamide]: the IC50 at human cathepsin K was determined as 2.56 nM; at human cathepsin F it was 3670 nM.

`N#CC1(NC(=O)[C@@H]2C[C@@H](F)CC[C@H]2c2nn(-c3ccc(F)cn3)cc2-c2ccc(N3CCS(=O)(=O)CC3)cc2)CC1` [Example 10, (1R,2R,5S)—N-(1-Cyanocyclopropyl)-2-(4-(4-(1,1-dioxidothiomorpholino)phenyl)-1-(5-fluoropyridin-2-yl)-1H-pyrazol-3-yl)-5-fluorocyclohexanecarboxamide]: the IC50 on human cathepsin K turned out to be 0.89 nM; at human cathepsin F it was 1050 nM.

With `N#CC1(NC(=O)[C@@H]2CC(F)(F)CC[C@H]2c2nn(-c3ccc(F)cc3)c(CO)c2-c2ccc(N3CCS(=O)(=O)CC3)cc2)CC1` [Example 11, (1R,2R)—N-(1-Cyanocyclopropyl)-2-(4-(4-(1,1-dioxidothiomorpholino)phenyl)-1-(4-fluorophenyl)-5-(hydroxymethyl)-1H-pyrazol-3-yl)-5,5-difluorocyclohexanecarboxamide], the IC50 at human cathepsin K stood at 1.41 nM; on human cathepsin F, 125 nM.

In the case of `N#CC1(NC(=O)[C@@H]2CC(F)(F)CC[C@H]2c2nn3ccccc3c2-c2ccc(C(=O)N3CCOCC3)cc2)CC1` [Example 13, (1R,2R)—N-(1-cyanocyclopropyl)-5,5-difluoro-2-(3-(4-(morpholine-4-carbonyl)phenyl)pyrazolo[1,5-a]pyridin-2-yl)cyclohexanecarboxamide], the results for the IC50 at human cathepsin K and on human cathepsin F were 4.84 nM and 339 nM, respectively.

`N#CC1(NC(=O)[C@@H]2C[C@@H](F)CC[C@H]2c2nn(-c3ccc(F)cn3)cc2-c2ccc(N3CCS(=N)(=O)CC3)cc2)CC1` [Example 14, (1R,2R,5S)-N-(1-cyanocyclopropyl)-5-fluoro-2-(1-(5-fluoropyridin-2-yl)-4-(4-(1-imino-1-oxidothiomorpholino)phenyl)-1H-pyrazol-3-yl)cyclohexanecarboxamide]: the figures for the IC50 on human cathepsin K and on human cathepsin F were 2 nM and 2020 nM, respectively.

Turning to `CN=S1(=O)CCN(c2ccc(-c3cn(-c4ccc(F)cc4)nc3[C@@H]3CC[C@H](F)C[C@H]3C(=O)NC3(C#N)CC3)cc2)CC1` [Example 15, (1R,2R,5S)-N-(1-cyanocyclopropyl)-5-fluoro-2-(1-(4-fluorophenyl)-4-(4-(1-(methylimino)-1-oxidothiomorpholino)phenyl)-1H-pyrazol-3-yl)cyclohexanecarboxamide], the values for the IC50 on human cathepsin K and on human cathepsin F were 3 nM and 1780 nM, respectively.

With `N#CC1(NC(=O)[C@@H]2C[C@@H](F)CC[C@H]2c2nn(-c3ccc(F)cc3)cc2-c2ccc(N3CCS(=N)(=O)CC3)cc2)CC1` [Example 16, (1R,2R,5S)-N-(1-cyanocyclopropyl)-5-fluoro-2-(1-(4-fluorophenyl)-4-(4-(1-imino-1-oxidothiomorpholino)phenyl)-1H-pyrazol-3-yl)cyclohexanecarboxamide], the IC50 on human cathepsin K amounted to 2.83 nM; at human cathepsin F, 2600 nM.

For the compound `CN=S1(=O)CCN(c2ccc(-c3cn(-c4ccc(F)cn4)nc3[C@@H]3CC[C@H](F)C[C@H]3C(=O)NC3(C#N)CC3)cc2)CC1` [Example 17, (1R,2R,5S)-N-(1-cyanocyclopropyl)-5-fluoro-2-(1-(5-fluoropyridin-2-yl)-4-(4-(1-(methylimino)-1-oxidothiomorpholino)phenyl)-1H-pyrazol-3-yl)cyclohexanecarboxamide], the IC50 turned out to be 3.22 nM at human cathepsin K and 1410 nM at human cathepsin F.

Regarding `CC(C)(C)N=S1(=O)CCN(c2ccc(-c3cn(-c4ccc(F)cc4)nc3[C@@H]3CCCC[C@H]3C(=O)NC3(C#N)CC3)cc2)CC1` [Example 18, (1R,2R)-2-(4-(4-(1-(tert-butylimino)-1-oxidothiomorpholino)phenyl)-1-(4-fluorophenyl)-1H-pyrazol-3-yl)-N-(1-cyanocyclopropyl)cyclohex-anecarboxamide], the IC50 at human cathepsin K is 5 nM; on human cathepsin F it was 1290 nM.

In the case of `N#CN=S1(=O)CCN(c2ccc(-c3cn(-c4ccc(F)cc4)nc3[C@@H]3CCCC[C@H]3C(=O)NC3(C#N)CC3)cc2)CC1` [Example 19, (1R,2R)-N-(1-cyanocyclopropyl)-2-(4-(4-(1-(cyanoimino)-1-oxidothiomorpholino)phenyl)-1-(4-fluorophenyl)-1H-pyrazol-3-yl)cyclohexanecarboxamide], the IC50 at human cathepsin K was 2.2 nM; on human cathepsin F, 809 nM.

Turning to `N#CC1(NC(=O)[C@@H]2CCC(F)(F)C[C@H]2c2nn(-c3ccc(F)cn3)cc2-c2ccc(N3CCS(=N)(=O)CC3)cc2)CC1` [Example 20, (1R,2R)-N-(1-cyanocyclopropyl)-4,4-difluoro-2-(1-(5-fluoropyridin-2-yl)-4-(4-(1-imino-1-oxidothiomorpholino)phenyl)-1H-pyrazol-3-yl)cyclohexanecarboxamide], the IC50 at human cathepsin K was determined as 6.81 nM; at human cathepsin F, 1820 nM.

Regarding `N#CC1(NC(=O)[C@@H]2CCCC[C@H]2c2nn3ccccc3c2-c2ccc(N3CCS(=O)(=O)CC3)cc2)CC1` [Example 21, (1R,2R)-N-(1-cyanocyclopropyl)-2-(3-(4-(1,1-dioxidothiomorpholino)phen-yl)pyrazolo[1,5-a]pyridin-2-yl)cyclohexanecarboxamide], the results for the IC50 at human cathepsin K and at human cathepsin F were 9.56 nM and 6910 nM, respectively.

Take `Cc1c(-c2ccc(N3CCS(=O)(=O)CC3)cc2)c([C@@H]2CCC(F)(F)C[C@H]2C(=O)NC2(C#N)CC2)nn1-c1ccc(F)cc1` [Example 26, (1R,2R)-N-(1-cyanocyclopropyl)-2-(4-(4-(1,1-dioxidothiomorpholino)phen-yl)-1-(4-fluorophenyl)-5-methyl-1H-pyrazol-3-yl)-5,5-difluorocyclohexanecarbox-amide]: the figures for the IC50 at human cathepsin K and at human cathepsin F were 0.67 nM and 168 nM, respectively.

Regarding `Cc1c(-c2ccc(N3CCS(=O)(=O)CC3)cc2)c([C@@H]2CCC(F)(F)C[C@H]2C(=O)NC2(C#N)CC2)nn1-c1ccc(F)cn1` [Example 27, (1R,2R)-N-(1-cyanocyclopropyl)-2-(4-(4-(1,1-dioxidothiomorpholino)phen-yl)-1-(5-fluoropyridin-2-yl)-5-methyl-1H-pyrazol-3-yl)-5,5-difluorocyclohexanecarbox-amide], the IC50 came to 1.28 nM at human cathepsin K and 170 nM at human cathepsin F.

Regarding `N#CC1(NC(=O)[C@@H]2CC(F)(F)CC[C@H]2c2nn3ccccc3c2-c2ccc(N3CCS(=O)(=O)CC3)cc2)CC1` [Example 28, (1R,2R)-N-(1-cyanocyclopropyl)-2-(3-(4-(1,1-dioxidothiomorpholino)phen-yl)pyrazolo[1,5-a]pyridin-2-yl)-5,5-difluorocyclohexanecarbox-amide], the values for the IC50 on human cathepsin K and on human cathepsin F were 1.94 nM and 363 nM, respectively.

On to `N#CC1(NC(=O)[C@@H]2C[C@@H](F)CC[C@H]2c2nn(-c3ncccc3F)cc2-c2ccc(N3CCS(=O)(=O)CC3)cc2)CC1` [Example 29, (1R,2R,5S)-N-(1-cyanocyclopropyl)-2-(4-(4-(1,1-dioxidothiomorpholino)phen-yl)-1-(3-fluoropyridin-2-yl)-1H-pyrazol-3-yl)-5-fluorocyclohexanecarboxamide], for which the results for the IC50 at human cathepsin K and on human cathepsin F were 6.2 nM and 6780 nM, respectively.

(Values after patent US9656990B2, “Cathepsin cysteine protease inhibitors” (Merck Sharp & Dohme Corp., priority 2014, dated 2017).)
